We go through two compounds from paper PMC2151644 (The Journal of General Physiology, 2007).

The term Ki denotes the dissociation constant of the complex between target and ligand, obtained from inhibition or displacement. High values mean weaker binding, low ones tighter binding.

Positions count from the first letter of the chain named.

In assay [1] the target is T1, epithelial sodium channel (ENaC), β subunit (FLAG-tagged/G525C β-ENaC) (Rattus norvegicus, UniProt P37089+P37090+P37091, P37090:G525C).
T1 sequence (P37090 1-638 G525C): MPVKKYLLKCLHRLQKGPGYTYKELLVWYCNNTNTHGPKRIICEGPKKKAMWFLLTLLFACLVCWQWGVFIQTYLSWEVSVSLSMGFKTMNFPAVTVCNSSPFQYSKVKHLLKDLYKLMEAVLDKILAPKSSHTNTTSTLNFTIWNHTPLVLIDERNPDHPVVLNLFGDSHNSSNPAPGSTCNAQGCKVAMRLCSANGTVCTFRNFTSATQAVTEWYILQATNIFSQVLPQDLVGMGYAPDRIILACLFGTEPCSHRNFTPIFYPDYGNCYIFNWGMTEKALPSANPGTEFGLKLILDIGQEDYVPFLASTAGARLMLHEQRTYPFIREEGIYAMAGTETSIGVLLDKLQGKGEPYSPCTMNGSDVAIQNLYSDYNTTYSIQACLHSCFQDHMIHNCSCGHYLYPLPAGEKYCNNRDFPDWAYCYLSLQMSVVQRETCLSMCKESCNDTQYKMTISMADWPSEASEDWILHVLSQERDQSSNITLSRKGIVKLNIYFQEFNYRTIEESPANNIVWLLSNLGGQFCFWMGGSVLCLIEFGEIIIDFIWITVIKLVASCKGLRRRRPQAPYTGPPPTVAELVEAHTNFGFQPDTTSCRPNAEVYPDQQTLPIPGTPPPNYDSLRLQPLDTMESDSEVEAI
T1 sequence (P37089 1-698): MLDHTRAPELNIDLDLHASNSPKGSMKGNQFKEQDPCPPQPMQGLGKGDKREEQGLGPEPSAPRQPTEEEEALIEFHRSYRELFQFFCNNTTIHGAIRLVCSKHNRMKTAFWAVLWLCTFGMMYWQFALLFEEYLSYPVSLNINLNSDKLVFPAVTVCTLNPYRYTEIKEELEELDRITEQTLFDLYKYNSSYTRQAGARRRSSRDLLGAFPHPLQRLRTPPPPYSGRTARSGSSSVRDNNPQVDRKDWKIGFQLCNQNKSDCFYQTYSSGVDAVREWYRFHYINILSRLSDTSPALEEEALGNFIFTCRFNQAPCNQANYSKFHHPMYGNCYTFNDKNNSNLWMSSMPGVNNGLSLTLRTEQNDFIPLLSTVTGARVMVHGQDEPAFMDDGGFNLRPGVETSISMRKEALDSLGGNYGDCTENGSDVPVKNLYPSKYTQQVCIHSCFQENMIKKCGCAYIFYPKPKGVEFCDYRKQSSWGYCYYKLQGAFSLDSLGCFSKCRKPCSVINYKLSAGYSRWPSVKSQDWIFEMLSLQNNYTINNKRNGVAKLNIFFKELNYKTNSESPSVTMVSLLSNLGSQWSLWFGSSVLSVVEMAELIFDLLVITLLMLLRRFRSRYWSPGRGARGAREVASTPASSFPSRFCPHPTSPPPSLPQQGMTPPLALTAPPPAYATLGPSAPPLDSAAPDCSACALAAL
T1 sequence (P37091 1-650): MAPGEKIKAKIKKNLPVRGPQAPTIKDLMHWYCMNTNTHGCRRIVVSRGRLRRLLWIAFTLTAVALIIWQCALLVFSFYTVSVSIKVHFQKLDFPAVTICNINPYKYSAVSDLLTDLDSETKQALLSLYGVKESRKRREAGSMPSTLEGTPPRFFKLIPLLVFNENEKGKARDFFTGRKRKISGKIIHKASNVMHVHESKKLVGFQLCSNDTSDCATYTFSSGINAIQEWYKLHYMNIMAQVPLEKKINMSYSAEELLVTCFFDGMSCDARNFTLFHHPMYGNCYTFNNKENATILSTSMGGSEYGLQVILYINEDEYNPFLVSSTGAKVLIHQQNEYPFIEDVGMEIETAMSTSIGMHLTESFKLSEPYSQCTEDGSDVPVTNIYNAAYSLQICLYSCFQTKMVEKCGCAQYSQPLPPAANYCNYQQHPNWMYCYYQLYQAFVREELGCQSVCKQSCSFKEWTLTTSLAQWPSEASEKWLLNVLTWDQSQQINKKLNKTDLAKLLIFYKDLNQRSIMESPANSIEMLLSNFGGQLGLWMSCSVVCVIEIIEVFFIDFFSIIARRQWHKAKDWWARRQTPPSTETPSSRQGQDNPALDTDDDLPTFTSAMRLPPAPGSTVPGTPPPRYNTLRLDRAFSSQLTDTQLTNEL
The assay can be described thus: dose-response block of short-circuit current in MDCK monolayers. The assay is classed as cell-based.

The target of assay [2] is T2, epithelial sodium channel (ENaC), β subunit (FLAG-tagged β-ENaC) (Rattus norvegicus, UniProt P37089+P37090+P37091).
T2 sequence (P37090 1-638): T1 sequence (P37090 1-638 G525C) with C525G
T2 sequence (P37089 1-698): T1 sequence (P37089 1-698)
T2 sequence (P37091 1-650): T1 sequence (P37091 1-650)
Described as above. It counts as cell-based.

For `N=C(N)NC(=O)c1nc(Cl)c(N)nc1N` [amiloride], the Ki amounted to 36000 nM in assay [1] and 84 nM in assay [2].

For the compound `NC(=NCc1ccccc1)NC(=O)c1nc(Cl)c(N)nc1N` [benzamil], the Ki was found to be 2900 nM in assay [1] and 18 nM in assay [2].
